Earlier results on one molecule are cited in patent US8905760B2, “Methods and systems for progressively treating and controlling oral periopathogens causing systemic inflammations” (priority 2008, dated 2014).

Structures can show the parent of a compound that is named as a salt.

For the data set the following is noted: IPT group: standard periodontal therapy with adjunctive local delivery of minocycline-HCl (Arestin); N=20; P<0.0001, t test.

On to `CN(C)c1ccc(O)c2c1C[C@H]1C[C@H]3[C@H](N(C)C)C(O)=C(C(N)=O)C(=O)[C@@]3(O)C(O)=C1C2=O` [minocycline-HCl], for which the “reduction of periodontal lesions after therapy (mean difference)” value was 60±23.
